Publication PMC6661729, “In silico design and synthesis of hesperitin derivatives as new xanthine oxidase inhibitors” (BMC Chemistry, 2019)

Experiments:
human xanthine oxidase = target: T1, human xanthine oxidase (Homo sapiens, UniProt P47989); assay: In vitro xanthine oxidase inhibitory activity (XO activity assay kit, H2O2 read at 570 nm); assay type: biochemical; conditions: 25 °C, xanthine substrate, allopurinol positive control; read-out: IC50 xanthine oxidase inhibition
T1 construct: purchased Sigma (sigma-aldrich.co, USA) MAK078
Method: For this research, the analytical grade chemicals necessary for synthesis and antioxidant activity were purchased from Hi-media Laboratories. The in vitro evaluation of the human xanthine oxidase inhibitory activity was performed by measuring hydrogen peroxide (H2O2) production from oxidation of […], utilizing the human xanthine oxidase assay kit (Sigma USA). The progress of reaction was observed through thin layer chromatography (TLC) on 0.25 mm precoated silica gel plates purchased from Merck, reaction spots were envisaged in iodine compartment and UV. Melting points were measured using a Sonar melting point apparatus and uncorrected. ^1H NMR and ^13C NMR spectra were documented in DMSO and deuterated CDCl3 respectively on Bruker Avance II 400 NMR spectrometer at the frequency of 400 MHz using tetramethylsilane standard (downfield) moreover chemical shifts were expressed in ppm (δ) using the residual solvent line as internal standard. Infrared (IR) spectra were recorded on Perkin Elmer FTIR spectrophotometer by utilizing KBr pellets system.
The method opted to evaluate the inhibitory potential of hesperitin derivatives was a modified protocol of Sigma, done by UV-spectrophotometric method by using xanthine oxidase activity assay kit purchased from sigma (MAK078, sigma-aldrich.co, USA). The colorimetric product obtained in the form of hydrogen peroxide generated during the oxidation of XO was determined by a coupled enzyme technique, measured at 570 nm in a 96-well plate, using the plate reader EPOCH™ “MICROPLATE READER (BIOTEK)”. One unit of XO is defined as the amount of enzyme that catalyzes the oxidation of xanthine substrate, yielding 1.0 µmol of uric acid and hydrogen peroxide per minute at 25 °C. Reagents used were 44 µL of xanthine oxidase assay buffer, 2 µL xanthine substrate solution and 2 µL of xanthine oxidase enzyme solution. All the solutions mentioned above were mixed to prepare reaction mixture. The different concentrations of synthesized derivatives having final volume 50 µL were prepared in dimethyl sulfoxide (DMSO) and added to 96 well plate. To each well 50 µL of reaction mix was added and mixed well. After 2–3 min initial measurement was taken. The plates were incubated at 25 °C taking measurements at every 5 min.

[1] = Antioxidant activity by DPPH method; conditions: methanol, 37 °C, 517 nm; ascorbic acid positive control; read-out: IC50 ± SEM (DPPH assay)
Method: The antioxidant potential of hesperitin derivatives was performed by DPPH method evaluated in the form of IC50 estimated using the ELISA plate reader EPOCH™ “MICROPLATE READER (BIOTEK)”. This method opted for evaluation of free radical scavenging activity of DPPH was base on modified procedure described by Dhiman et al.. The tested compounds were prepared in methanolic solution and reacted with methanolic solution of DPPH at 37 °C. The reaction mixture was prepared in 96-well plate by adding 50 µL of sample, 50 µL […] of methanol and 50 µL of DPPH solution prepared in 0.1 mM in methanol. The mechanism of action of DPPH assay was based on the fact that DPPH radical get reduced during its reaction with an antioxidant compound and results in changes of color (from deep violet to light yellow). The absorbance was read at 517 nm for 30 min at an interval of 5 min of using ELISA microplate reader. The mixture of methanol (5.0 mL) and tested compounds (0.2 mL) serve as blank. Ascorbic acid served as positive control.

[2] = Hydrogen peroxide scavenging (H2O2) assay; conditions: phosphate buffer pH 7.4, 230 nm, 10 min; L-ascorbic acid standard; read-out: IC50 ± SEM (hydrogen peroxide assay)
Method: To compare and best evaluate the antioxidant potential of newly synthesized hesperitin derivatives, hydrogen peroxide assay was performed by the method described by Patel et al. with some modifications. The solution of H2O2 (100 mM) was prepared via the adding up different concentrations of synthesized derivatives ranging from 5 to 80 μg/mL to H2O2 solution (2 mL), prepared in 20 mM phosphate buffer of pH 7.4. Finally, the absorbance of H2O2 was measured at 230 nm after incubating for 10 min next to a blank reading of phosphate buffer without H2O2. For every measurement, a fresh reading of blank was taken to carry out background correction. For control sample containing H2O2 was scanned for absorbance at 230 nm. Results calculated as percentage of hydrogen peroxide inhibition was estimated by the formula [(Ab − At)/[…]] × 100, where Ab is the absorbance of the control and At is the absorbance of compounds/standard taken as L-ascorbic acid (5–80 μg/mL) are shown in Table 3.

xanthine oxidase = assay: Enzyme kinetic analysis for XO-inhibitory activity (Michaelis-Menten, Lineweaver-Burk); assay type: biochemical, human; conditions: without inhibitor 117.6
Method: Firstly Michaelis–Menten curve was plotted for the enzyme activity at different concentrations of HET4 against different concentration of xanthine substrate (Fig. 6).
Then double reciprocal plot (Lineweaver–Burk) analysis was done in the presence (0.25, 0.5, and 1.0 µM) and absence of HET4 from in vitro data generated during the oxidation of xanthine in presence of xanthine oxidase (Fig. 7). The x- and y-axis intercepts of the Lineweaver–Burk plot were utilized to calculate Km and Vmax values of HET4 at different concentrations (Table 2).

Chain of xanthine oxidase (P47989 whole entry): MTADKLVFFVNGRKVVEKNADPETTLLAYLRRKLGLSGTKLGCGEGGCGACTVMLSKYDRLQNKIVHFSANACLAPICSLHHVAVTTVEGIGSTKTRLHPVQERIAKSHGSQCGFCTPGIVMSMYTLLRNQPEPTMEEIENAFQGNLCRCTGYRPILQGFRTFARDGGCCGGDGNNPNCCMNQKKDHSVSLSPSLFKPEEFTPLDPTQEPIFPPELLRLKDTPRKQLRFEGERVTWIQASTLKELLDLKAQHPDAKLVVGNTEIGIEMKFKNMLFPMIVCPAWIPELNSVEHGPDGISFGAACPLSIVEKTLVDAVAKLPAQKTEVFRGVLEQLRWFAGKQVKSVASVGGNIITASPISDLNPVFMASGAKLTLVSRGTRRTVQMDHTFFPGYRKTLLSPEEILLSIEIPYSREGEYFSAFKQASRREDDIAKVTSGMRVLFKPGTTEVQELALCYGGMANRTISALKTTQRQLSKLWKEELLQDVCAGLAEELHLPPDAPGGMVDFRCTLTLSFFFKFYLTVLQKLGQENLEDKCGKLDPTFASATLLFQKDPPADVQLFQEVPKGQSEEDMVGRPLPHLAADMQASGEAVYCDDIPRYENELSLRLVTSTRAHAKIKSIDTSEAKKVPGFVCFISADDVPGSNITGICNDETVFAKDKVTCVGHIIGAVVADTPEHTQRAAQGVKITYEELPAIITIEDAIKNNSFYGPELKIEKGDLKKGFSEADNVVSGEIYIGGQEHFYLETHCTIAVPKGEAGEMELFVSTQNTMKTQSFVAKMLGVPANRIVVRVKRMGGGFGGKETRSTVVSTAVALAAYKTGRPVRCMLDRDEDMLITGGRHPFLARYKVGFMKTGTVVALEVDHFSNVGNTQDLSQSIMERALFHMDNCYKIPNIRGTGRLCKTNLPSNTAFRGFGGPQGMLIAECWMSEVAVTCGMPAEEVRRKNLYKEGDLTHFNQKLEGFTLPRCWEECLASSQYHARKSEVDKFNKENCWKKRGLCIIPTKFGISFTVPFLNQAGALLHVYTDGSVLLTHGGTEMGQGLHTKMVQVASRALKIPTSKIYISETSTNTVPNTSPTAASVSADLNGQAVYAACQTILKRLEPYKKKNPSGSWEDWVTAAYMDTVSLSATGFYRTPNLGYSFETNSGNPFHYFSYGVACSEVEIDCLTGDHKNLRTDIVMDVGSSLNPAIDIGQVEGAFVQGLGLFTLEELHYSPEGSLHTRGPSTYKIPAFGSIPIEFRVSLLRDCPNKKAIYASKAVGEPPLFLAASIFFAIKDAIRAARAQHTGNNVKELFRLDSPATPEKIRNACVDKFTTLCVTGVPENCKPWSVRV
T1 sequence (P47989 whole entry): as above

Q: Which results are given for COc1ccc([C@@H]2CC(=O)c3c(OC)cc(OC(=O)c4cccnc4)cc3O2)cc1OC [HET5]?
A: IC50 (human xanthine oxidase): 10.8 µM; IC50 [1]: 4.82 ± 0.06 µM; IC50 [2]: 6.37 ± 0.26 µM

Q: Which results are given for COc1ccc([C@@H]2CC(=O)c3c(OC)cc(OC(=O)C(O)c4ccccc4)cc3O2)cc1OC (some centres unmarked) [HET3]?
A: IC50 (human xanthine oxidase): 12.9 ± 0.72 µM; IC50 [2]: 3.322 ± 0.01 µM

Q: Which results are given for COc1ccc([C@@H]2CC(=O)c3c(O)cc(O)cc3O2)cc1O [Hesperitin]?
A: IC50 (human xanthine oxidase): 29.25 ± 0.12 µM; IC50 [1]: 12.9 ± 0.2 µM; IC50 [2]: 14.43 ± 0.14 µM

Q: What does the source list for COc1ccc([C@@H]2CC(=O)c3c(OC)cc(OC(=O)/C=C/c4ccc(O)c(O)c4)cc3O2)cc1OC [HET4]?
A: IC50 (human xanthine oxidase): 9.09 µM; Vmax of xanthine oxidase (xanthine oxidase; Conc. of HET4 0.25 µM): 116.4 µmol/min; Vmax of xanthine oxidase (xanthine oxidase; Conc. of HET4 0.5 µM): 112.2 µmol/min; Vmax of xanthine oxidase (xanthine oxidase; Conc. of HET4 1.0 µM): 103.7 µmol/min; IC50 [1]: 1.633 ± 0.01 µM; IC50 [2]: 4.642 ± 0.03 µM

Q: For COc1ccc([C@@H]2CC(=O)c3c(OC)cc(OC(=O)c4ccccc4S)cc3O2)cc1OC [HET2], which IC50 (human xanthine oxidase) is on record?
A: 23.2 ± 1.25 µM

Q: What about the IC50 [1] of the same molecule?
A: 6.71 ± 0.15 µM

Q: What about the IC50 [2] of the same molecule?
A: 8.547 ± 0.06 µM

Q: With COc1cc(C(=O)Oc2cc(OC)c3c(c2)O[C@H](c2ccc(OC)c(OC)c2)CC3=O)ccc1O [HET6] as the molecule, how does the IC50 (human xanthine oxidase) read?
A: 11.7 µM

Q: What about the IC50 [1] of the same molecule?
A: 7.11 ± 0.13 µM

Q: And the IC50 [2]?
A: 7.51 ± 0.02 µM
